# Test results: patent US9029337B2, “Modulation of factor 7 expression” (Isis Pharmaceuticals, Inc., priority 2007, dated 2015)
# e = 2'-O-(2-methoxyethyl) (MOE); d = 2'-deoxy (DNA)
# Columns and labels:
# Format in all cases: in vivo, mouse
# BALB/c mice = assay: Tail bleeding assay; settings: mouse, in vivo
# Protocol: (§1) Mice not receiving treatment with FeCl3 solution were evaluated in a tail bleeding chamber. Mice were placed into the bleeding chamber two days after the final treatment of ISIS 403102 or PBS. Mice were anesthetized in the chamber with isofluorane and a small piece of tail (approximately 4 mm from the tip) was cut with sterile scissors. The cut tail was immediately placed in a 15 mL Falcon tube filled with approximately 10 mL of 0.9% NaCl buffer solution warmed to 37° C. The blood was collected over the course of 40 minutes. The saline filled tubes were weighed both before and after bleeding.
# Tail-bleeding was measured to observe whether treatment with ISIS 403102 or warfarin causes internal hemorrhage in mice. ISIS 403102 and warfarin (Coumadin®) were evaluated in the tail bleeding assay. Six groups of BALB/c mice were treated with 1.25 mg/kg, 2.5 mg/kg, 5 mg/kg, 10 mg/kg, 20 mg/kg, or 40 mg/kg of ISIS 403102, administered subcutaneously twice a week for 3 weeks. An additional 6 groups of BALB/c mice were treated with 0.5 mg/kg, 1 mg/kg, 2 mg/kg, 3 mg/kg, 4 mg/kg, and 5 mg/kg of warfarin, administered intraperioneally daily for 6 days. A separate control group of BALB/c mice was treated with PBS, administered subcutaneously twice a week for 3 weeks.
# as §1, with “Two” for “Mice not receiving treatment with FeCl3 solution were evaluated in a tail bleeding chamber. Mice were placed into the bleeding chamber two”, “403102, warfarin,” for “403102”, “PBS, mice were placed in a tail bleeding chamber.” for “PBS.”
# ISIS 403102 and Apixaban were evaluated in BALB/c mice. In a first group of BALB/c mice, 40 mg/kg of ISIS 403102 was administered subcutaneously twice a week for 3 weeks. An additional 3 groups of BALB/c mice were treated with 5 mg/kg and 10 mg/kg of Apixaban, administered in a single intraperitoneal dose, and 10 mg/kg of Apixaban administered as a single subcutaneous dose. A control group of BALB/c mice was treated with PBS, administered subcutaneously twice a week for 3 weeks.
# as §1, with “Two” for “Mice not receiving treatment with FeCl3 solution were evaluated in a tail bleeding chamber. Mice were placed into the bleeding chamber two”, “PBS, mice were placed in a tail bleeding chamber. Mice from the groups treated with Apixaban were analyzed 30 minutes after the single dose.” for “PBS.”, “weighed” for “weighed both”
# [1] = test system: extrinsic pathway of blood coagulation; assay: Prothrombin Time (PT) in platelet poor plasma of treated BALB/c mice
# Protocol: (§2) Prothrombin Time (PT) and Activated Partial Thromboplastin Time (aPTT) were measured using platelet poor plasma (PPP) from mice treated with ISIS 403102. PT and aPTT values provided in Table 20 are reported as International Normalized Ratio (INR) values. INR values for PT and aPTT were determined by dividing the PT or aPTT value for the experimental group by the PT or aPTT for the PBS treated group. This ratio was then raised to the power of the International Sensitivity Index (ISI) of the tissue factor used.
# as §2, with “in Table 22 are reported” for “in Table 20 are reported”, “experimental group (i.e. 50 mg/kg treatment with ISIS 403102) by the” for “experimental group by the”
# as §2, with “in Table 24 are reported” for “in Table 20 are reported”, “experimental group (i.e. 50 mg/kg treatment with ISIS 403102) by the” for “experimental group by the”
# murine Factor 7 mRNA = assay: Antisense inhibition of murine Factor 7 mRNA in liver of BALB/c mice, dose response
# Protocol: BALB/c mice were treated with ISIS 403102 ([…], target site 11336, incorporated herein as SEQ ID NO: 161). BALB/c mice were injected subcutaneously with 5 mg/kg, 10 mg/kg, 25 mg/kg, or 50 mg/kg of ISIS 403102 twice a week for 3 weeks. A control group of mice was injected subcutaneously with PBS twice a week for 3 weeks. After the treatment period, whole liver was collected for RNA and protein analysis, and plasma was collected for clotting analysis (PT/aPTT).
# RNA was extracted from liver tissue for real-time RT-PCR analysis of Factor 7. […] Results are presented as percent inhibition of Factor 7, relative to the control.
sequence,measurement,setting,value
"CCATAGAACAGCTTCACAGG (sugars from the 5' end e5 d10 e5, backbone and methylation of C not given here) [ISIS 403102]",amount of bleeding in comparison to PBS treated mice,BALB/c mice,slight decrease in the amount of bleeding
same,bleeding as compared to PBS control mice,BALB/c mice,did not significantly affect bleeding
same,amount of bleeding in comparison to PBS treated mice,BALB/c mice; 50 mg/kg,Bleeding was the same
same,"Blood (g), tail bleeding","BALB/c mice; sc, 40 mg/kg",0.10 g
same,bleeding compared to PBS treated mice,"BALB/c mice; sc, 40 mg/kg",less bleeding than PBS treated mice
same,PT INR,"[1]; BALB/c mice, 5 mg/kg, relative to PBS treated group",1.09
same,PT INR,"[1]; BALB/c mice, 10 mg/kg, relative to PBS treated group",1.33
same,PT INR,"[1]; BALB/c mice, 25 mg/kg, relative to PBS treated group",2.33
same,PT INR,"[1]; BALB/c mice, 50 mg/kg, 1 dose, 1 day after last dose, relative to PBS group",1.04 INR
same,PT INR,"[1]; BALB/c mice, 50 mg/kg, 1 dose, 3 days after last dose, relative to PBS group",1.20 INR
same,PT INR,"[1]; BALB/c mice, 50 mg/kg, 2 doses, 3 days after last dose, relative to PBS group",1.43 INR
same,PT INR,"[1]; BALB/c mice, 50 mg/kg, 4 doses, 3 days after last dose, relative to PBS group",2.13 INR
same,PT INR,"[1]; BALB/c mice, 50 mg/kg, 6 doses, 2 days after last dose, relative to PBS group",1.64 INR
same,PT INR,"[1]; BALB/c mice, 50 mg/kg, 6 doses, 7 days after last dose, relative to PBS group",2.08 INR
same,PT INR,"[1]; BALB/c mice, 50 mg/kg, 6 doses, 14 days after last dose, relative to PBS group",1.37 INR
same,PT INR,"[1]; BALB/c mice, 50 mg/kg, 6 doses, 28 days after last dose, relative to PBS group",0.96 INR
same,PT INR,"[1]; BALB/c mice, 50 mg/kg, 6 doses, 42 days after last dose, relative to PBS group",1.00 INR
same,PT INR,"[1]; BALB/c mice, 50 mg/kg, 6 doses, 56 days after last dose, relative to PBS group",0.99 INR
same,PT INR,"[1]; BALB/c mice, 50 mg/kg, relative to PBS treated group",4.37
same,PT INR,"[1]; BALB/c mice, single dose 50 mg/kg, day 1",1.11
same,PT INR,"[1]; BALB/c mice, single dose 50 mg/kg, day 2",1.64
same,PT INR,"[1]; BALB/c mice, single dose 50 mg/kg, day 3",1.81
same,PT INR,"[1]; BALB/c mice, single dose 50 mg/kg, day 4",1.97
same,PT INR,"[1]; BALB/c mice, single dose 50 mg/kg, day 6",1.59
same,PT INR,"[1]; BALB/c mice, single dose 50 mg/kg, day 8",1.55
same,PT INR,"[1]; BALB/c mice, single dose 50 mg/kg, day 12",1.30
same,PT INR,"[1]; BALB/c mice, single dose 50 mg/kg, day 24",1.12
same,PT INR,"[1]; BALB/c mice, single dose 50 mg/kg, day 56",1.10
same,PT compared to the control,"[1]; Example 11, 5-50 mg/kg twice a week for 3 weeks",significantly prolonged
same,PT,"[1]; Example 13, 6 doses, from day 7 to day 56",decreased
same,PT INR,"[1]; single dose 50 mg/kg, day 1",1.11
same,PT INR,"[1]; single dose 50 mg/kg, day 4",1.97
same,PT INR,"[1]; single dose 50 mg/kg, day 56",1.10
same,% inhibition of murine Factor 7 mRNA,"murine Factor 7 mRNA; 5 mg/kg subcutaneously twice a week for 3 weeks, relative to PBS control",64%
same,% inhibition of murine Factor 7 mRNA,murine Factor 7 mRNA; 10 mg/kg subcutaneously twice a week for 3 weeks,84%
same,% inhibition of murine Factor 7 mRNA,murine Factor 7 mRNA; 25 mg/kg subcutaneously twice a week for 3 weeks,96%
same,% inhibition of murine Factor 7 mRNA,murine Factor 7 mRNA; 50 mg/kg subcutaneously twice a week for 3 weeks,99%
same,reduction of murine Factor 7 mRNA over the PBS control,murine Factor 7 mRNA; 5-50 mg/kg twice a week for 3 weeks,dose-dependent reduction of murine Factor 7
